From ChEMBL document CHEMBL2151021, “Novel amide- and sulfonamide-based aromatic ethanolamines: effects of various substituents on the inhibition of acid and neutral ceramidases” (Bioorg Med Chem, 2012)
pIC50: −log10 of the molar value. Active and inactive are the calls of the source. No cut-off for these calls is given here.

Legend:
[1] = target: T1, Acid ceramidase (Homo sapiens) (UniProt Q13510); test: Inhibition of recombinant human aCDase expressed in Sf9 cells using fluorescently-labeled acyl-NBD-C12-ceramide as substrate at 80 uM after 8 hrs by fluorescence assay
T1 sequence (whole entry): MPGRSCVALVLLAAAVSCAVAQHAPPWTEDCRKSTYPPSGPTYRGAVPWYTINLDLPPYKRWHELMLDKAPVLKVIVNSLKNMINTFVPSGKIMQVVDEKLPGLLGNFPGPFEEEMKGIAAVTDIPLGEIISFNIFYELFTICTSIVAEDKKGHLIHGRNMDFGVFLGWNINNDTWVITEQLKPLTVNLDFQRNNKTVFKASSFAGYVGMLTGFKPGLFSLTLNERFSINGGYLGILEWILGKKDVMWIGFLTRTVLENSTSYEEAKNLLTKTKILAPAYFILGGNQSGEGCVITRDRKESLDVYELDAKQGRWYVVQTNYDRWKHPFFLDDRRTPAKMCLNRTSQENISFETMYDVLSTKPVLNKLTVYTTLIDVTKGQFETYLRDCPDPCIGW

Acid ceramidase [2] = target: T2, Acid ceramidase (Homo sapiens, UniProt Q13510); test: Inhibition of aCDase
T2 sequence (Q13510 whole entry): T1 sequence (whole entry)

Acid ceramidase [3] = target: T2, Acid ceramidase; test: Inhibition of aCDase expressed in human HL60 cell extract; assay type: cell-free, HL-60
[4] = target: Neutral ceramidase (Homo sapiens) (UniProt Q9NR71); test: Inhibition of recombinant human nCDase expressed in Sf9 cells using fluorescently-labeled acyl-NBD-C12-ceramide as substrate at 80 uM after 2 hrs by fluorescence assay
[5] = target: Neutral ceramidase (Homo sapiens) (UniProt Q9NR71); test: Activity of recombinant human nCDase expressed in Sf9 cells at 300 uM after 2 hrs by fluorescence assay

Sequence of Neutral ceramidase (Homo sapiens) (Q9NR71 whole entry): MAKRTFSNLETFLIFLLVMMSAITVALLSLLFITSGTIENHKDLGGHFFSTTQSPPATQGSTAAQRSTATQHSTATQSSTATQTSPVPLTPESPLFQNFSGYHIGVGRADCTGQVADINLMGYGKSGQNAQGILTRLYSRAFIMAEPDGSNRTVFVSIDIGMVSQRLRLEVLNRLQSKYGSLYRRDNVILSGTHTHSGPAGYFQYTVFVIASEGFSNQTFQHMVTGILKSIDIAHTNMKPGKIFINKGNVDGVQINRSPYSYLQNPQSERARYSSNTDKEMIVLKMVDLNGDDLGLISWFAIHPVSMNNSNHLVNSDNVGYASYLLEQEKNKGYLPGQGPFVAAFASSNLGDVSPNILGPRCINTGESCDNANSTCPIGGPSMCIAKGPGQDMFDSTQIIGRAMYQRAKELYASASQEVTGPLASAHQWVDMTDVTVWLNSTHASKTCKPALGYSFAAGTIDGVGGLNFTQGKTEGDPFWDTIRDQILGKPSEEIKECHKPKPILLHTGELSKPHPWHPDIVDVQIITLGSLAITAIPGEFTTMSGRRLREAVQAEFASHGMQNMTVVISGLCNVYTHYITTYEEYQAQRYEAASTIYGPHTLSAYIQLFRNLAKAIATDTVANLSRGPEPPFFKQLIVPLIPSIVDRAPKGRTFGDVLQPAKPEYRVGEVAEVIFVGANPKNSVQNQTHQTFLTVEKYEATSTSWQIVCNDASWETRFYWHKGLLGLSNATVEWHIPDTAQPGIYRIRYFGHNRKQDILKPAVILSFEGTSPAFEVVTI

| SMILES | inhibition [1] | pIC50 (Acid ceramidase [2]) | pIC50 (Acid ceramidase [3]) | inhibition [4] | Activity [5] |
| --- | --- | --- | --- | --- | --- |
| CCCCCCCCCCCCCC(=O)N[C@H](CO)[C@H](O)c1ccc([N+](=O)[O-])cc1 | Active | 5.00 |  |  |  |
| CCCCCCCCCCCCCC(=O)N[C@H](C)[C@@H](O)c1ccccc1 | Active |  | 6.00 |  |  |
| CCCCCCCCCCCCCC(=O)NCC(=O)c1ccc(C)cc1 | Active |  |  | Active |  |
| CCCCCCCCCCCCCC(=O)NCC(=O)c1cccc(C)c1 | Active |  |  | Active |  |
| CCCCCCCCCCCCS(=O)(=O)N[C@H](C)[C@@H](O)c1ccccc1 | Active |  |  | Active |  |
| CCCCCCCCCCCCS(=O)(=O)N[C@H](CO)[C@H](O)c1ccc([N+](=O)[O-])cc1 | Active |  |  |  |  |
| CCCCCCCCCCCCCC(=O)NCC(O)c1ccc(C(C)(C)C)cc1 (racemic) | Active |  |  | inactive |  |
| CCCCCCCCCCCCCC(=O)NCC(O)c1ccc(C)cc1 (racemic) | Active |  |  | Active | inactive |
| CCCCCCCCCCCCCC(=O)NCC(O)c1ccc(CC)cc1 (racemic) | Active |  |  |  |  |
| CCCCCCCCCCCCCC(=O)NCC(O)c1ccc(CCC)cc1 (racemic) | Active |  |  | inactive |  |
| CCCCCCCCCCCCCC(=O)NCC(O)c1ccc(CCCC)cc1 (racemic) | inactive |  |  |  |  |
| CCCCCCCCCCCCCC(=O)NCC(O)c1ccc(O)cc1 (racemic) | Active |  |  |  |  |
| CCCCCCCCCCCCCC(=O)NCC(O)c1ccc(OC)cc1 (racemic) | inactive |  |  | Active |  |
| CCCCCCCCCCCCCC(=O)NCC(O)c1cccc(C)c1 (racemic) | Active |  |  |  |  |
| CCCCCCCCCCCCCC(=O)NCC(O)c1cccc(O)c1 (racemic) | Active |  |  |  |  |
| CCCCCCCCCCCCCC(=O)NCC(O)c1cccc(OC)c1 (racemic) | inactive |  |  | Active |  |
| CCCCCCCCCCCCCC(=O)NCC(O)c1ccccc1 (racemic) | Active |  |  |  |  |
| CCCCCCCCCCCCCC(=O)NCC(O)c1cccnc1 (racemic) | Active |  |  | Active |  |
| CCCCCCCCCCCCCC(=O)NCC(O)c1ccncc1 (racemic) | Active |  |  | Active |  |
| CCCCCCCCCCCCS(=O)(=O)NCC(O)c1ccc(C)cc1 (racemic) | Active |  |  | Active | inactive |
| CCCCCCCCCCCCS(=O)(=O)NCC(O)c1ccccc1 (racemic) | Active |  |  | Active |  |
| CCCCCCCCCCCCS(=O)(=O)NCC(O)c1cccnc1 (racemic) | Active |  |  | Active |  |
| CCCCCCCCCCCCS(=O)(=O)NCC(O)c1ccncc1 (racemic) | Active |  |  | Active |  |
| CCCCCCCCCCCCCC(=O)NCC(O)c1ccc(C)cc1 (single isomer, unassigned; (-)) | Active |  |  | Active |  |
| CCCCCCCCCCCCCC(=O)NCC(O)c1ccc(C)cc1 (stereo in doubt) | Active |  |  | Active |  |
